Legend:
barnyard grass [1] = assay: Test Example 3: herbicidal effect by foliage application, Wagner pot (Table 18, symbol H); assay type: in vivo, barnyard grass (Echinochloa crus-galli); conditions: 320 g/ha
How it was run: (§1)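 Plants were sown in alluvial soil held under 0.1–0.5 cm standing water and grown 14 days in a greenhouse at 25–30 °C. An emulsifiable formulation, water-diluted to the set dose, was then sprayed onto the foliage, and effects were scored three weeks later using previously defined criteria.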

false cleavers [2] = assay: Test Example 5: herbicidal effect by foliage application, plastic box (Table 20, symbol Q); assay type: in vivo, false cleavers (Galium spurium); conditions: foliage application, 320 g/ha, three weeks after application
How it was run: (§2)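 Post-emergence foliar test in sterilized diluvial soil. Compound applied as water-diluted emulsion at a predetermined rate to 14-day-old plants; evaluation at three weeks.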

wild oat [3] = assay: Test Example 5: herbicidal effect by foliage application, plastic box (Table 20, symbol I); assay type: in vivo, wild oat (Avena fatua); conditions: foliage application, 320 g/ha, three weeks after application
How it was run: as §2

barnyard grass [4] = assay: Test Example 4: herbicidal effect by soil treatment (Table 19, symbol H); assay type: in vivo, barnyard grass (Echinochloa crus-galli); conditions: amount of applied herbicide 320 g/ha
How it was run: (§3)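 Emulsion of test compound, water-diluted to predetermined amount, sprayed on soil after sowing (seed depth ~1.5 cm, sterilized diluvial soil). Greenhouse, 25–30° C. Effect graded at three weeks post-spray.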

green foxtail [5] = assay: Test Example 4: herbicidal effect by soil treatment (Table 19, symbol G); assay type: in vivo, green foxtail (Setaria viridis); conditions: amount of applied herbicide 320 g/ha
How it was run: as §3

Chinese sprangletop = assay: Test Example 3: herbicidal effect by foliage application, Wagner pot (Table 18, symbol D); assay type: in vivo, chinese sprangletop (Leptochloa chinensis); conditions: 320 g/ha
How it was run: as §1

rice flat sedge = assay: Test Example 3: herbicidal effect by foliage application, Wagner pot (Table 18, symbol E); assay type: in vivo, rice flat sedge (Cyperus iria); conditions: 320 g/ha
How it was run: as §1

windgrass [6] = assay: Test Example 5: herbicidal effect by foliage application, plastic box (Table 20, symbol L); assay type: in vivo, windgrass (Apera spica-venti); conditions: foliage application, 320 g/ha, three weeks after application
How it was run: as §2

southern crabgrass [7] = assay: Test Example 5: herbicidal effect by foliage application, plastic box (Table 20, symbol F); assay type: in vivo, southern crabgrass (Digitaria ciliaris); conditions: foliage application, 320 g/ha, three weeks after application
How it was run: as §2

persian speedwell [8] = assay: Test Example 5: herbicidal effect by foliage application, plastic box (Table 20, symbol R); assay type: in vivo, Persian speedwell (Veronica persica); conditions: foliage application, 320 g/ha, three weeks after application
How it was run: as §2

false cleavers [9] = assay: Test Example 4: herbicidal effect by soil treatment (Table 19, symbol Q); assay type: in vivo, false cleavers (Galium spurium); conditions: amount of applied herbicide 320 g/ha
How it was run: as §3

Italian ryegrass [10] = assay: Test Example 4: herbicidal effect by soil treatment (Table 19, symbol K); assay type: in vivo, Italian ryegrass (Lolium multiflorum); conditions: amount of applied herbicide 320 g/ha
How it was run: as §3

oval-leafed pondweed = assay: Test Example 1: herbicidal activity, application before weed generation under submerged conditions (Table 16, symbol C); assay type: in vivo, oval-leafed pondweed (Monochoria vaginalis); conditions: 320 g/ha applied herbicide
How it was run: (§4)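 Emulsion formulation, water-diluted to set dose, was put onto the flooded surface (4 cm depth, alluvial soil) the same day weeds were sown and 2.5-leaf rice transplanted. After 3 weeks at 25-30 °C under glass, each species was rated 0 (≤5% kill) to 5 (≥90% kill).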

velvetleaf [11] = assay: Test Example 5: herbicidal effect by foliage application, plastic box (Table 20, symbol M); assay type: in vivo, velvetleaf (Abutilon theophrasti); conditions: foliage application, 320 g/ha, three weeks after application
How it was run: as §2

late watergrass = assay: Test Example 1: herbicidal activity, application before weed generation under submerged conditions (Table 16, symbol A); assay type: in vivo, late watergrass (Echinochloa oryzicola); conditions: 320 g/ha applied herbicide
How it was run: as §4

chickweed [12] = assay: Test Example 5: herbicidal effect by foliage application, plastic box (Table 20, symbol P); assay type: in vivo, common chickweed (Stellaria media); conditions: foliage application, 320 g/ha, three weeks after application
How it was run: as §2

green foxtail [13] = assay: Test Example 5: herbicidal effect by foliage application, plastic box (Table 20, symbol G); assay type: in vivo, green foxtail (Setaria viridis); conditions: foliage application, 320 g/ha, three weeks after application
How it was run: as §2

persian speedwell [14] = assay: Test Example 4: herbicidal effect by soil treatment (Table 19, symbol R); assay type: in vivo, Persian speedwell (Veronica persica); conditions: amount of applied herbicide 320 g/ha
How it was run: as §3

Italian ryegrass [15] = assay: Test Example 5: herbicidal effect by foliage application, plastic box (Table 20, symbol K); assay type: in vivo, Italian ryegrass (Lolium multiflorum); conditions: foliage application, 320 g/ha, three weeks after application
How it was run: as §2

lambsquarters [16] = assay: Test Example 5: herbicidal effect by foliage application, plastic box (Table 20, symbol O); assay type: in vivo, lambsquarters (Chenopodium album); conditions: foliage application, 320 g/ha, three weeks after application
How it was run: as §2

redroot pigweed [17] = assay: Test Example 5: herbicidal effect by foliage application, plastic box (Table 20, symbol N); assay type: in vivo, redroot pigweed (Amaranthus retroflexus); conditions: foliage application, 320 g/ha, three weeks after application
How it was run: as §2

southern crabgrass [18] = assay: Test Example 4: herbicidal effect by soil treatment (Table 19, symbol F); assay type: in vivo, southern crabgrass (Digitaria ciliaris); conditions: amount of applied herbicide 320 g/ha
How it was run: as §3

chickweed [19] = assay: Test Example 4: herbicidal effect by soil treatment (Table 19, symbol P); assay type: in vivo, common chickweed (Stellaria media); conditions: amount of applied herbicide 320 g/ha
How it was run: as §3

velvetleaf [20] = assay: Test Example 4: herbicidal effect by soil treatment (Table 19, symbol M); assay type: in vivo, velvetleaf (Abutilon theophrasti); conditions: amount of applied herbicide 320 g/ha
How it was run: as §3

redroot pigweed [21] = assay: Test Example 4: herbicidal effect by soil treatment (Table 19, symbol N); assay type: in vivo, redroot pigweed (Amaranthus retroflexus); conditions: amount of applied herbicide 320 g/ha
How it was run: as §3

barnyard grass [22] = assay: Test Example 5: herbicidal effect by foliage application, plastic box (Table 20, symbol H); assay type: in vivo, barnyard grass (Echinochloa crus-galli); conditions: foliage application, 320 g/ha, three weeks after application
How it was run: as §2

lambsquarters [23] = assay: Test Example 4: herbicidal effect by soil treatment (Table 19, symbol O); assay type: in vivo, lambsquarters (Chenopodium album); conditions: amount of applied herbicide 320 g/ha
How it was run: as §3

blackgrass [24] = assay: Test Example 4: herbicidal effect by soil treatment (Table 19, symbol J); assay type: in vivo, blackgrass (Alopecurus myosuroides); conditions: amount of applied herbicide 320 g/ha
How it was run: as §3

blackgrass [25] = assay: Test Example 5: herbicidal effect by foliage application, plastic box (Table 20, symbol J); assay type: in vivo, blackgrass (Alopecurus myosuroides); conditions: foliage application, 320 g/ha, three weeks after application
How it was run: as §2

Japanese bulrush = assay: Test Example 1: herbicidal activity, application before weed generation under submerged conditions (Table 16, symbol B); assay type: in vivo, Japanese bulrush (Schoenoplectus juncoides); conditions: 320 g/ha applied herbicide
How it was run: as §4

windgrass [26] = assay: Test Example 4: herbicidal effect by soil treatment (Table 19, symbol L); assay type: in vivo, windgrass (Apera spica-venti); conditions: amount of applied herbicide 320 g/ha
How it was run: as §3

wild oat [27] = assay: Test Example 4: herbicidal effect by soil treatment (Table 19, symbol I); assay type: in vivo, wild oat (Avena fatua); conditions: amount of applied herbicide 320 g/ha
How it was run: as §3

SMILES: CCCCCOc1ccc(-c2sc3ccccc3c2-c2c(OC(=O)CCC)c(C)nn(C)c2=O)cc1 [1-027]
- herbicidal effect on H (barnyard grass), rating 0-5 (barnyard grass [1]): 3 (Herbicidal rate of 40% or more and less than 70%)
- herbicidal effect grade, Q: false cleavers (false cleavers [2]): 3 (Herbicidal rate of 40% or more and less than 70%)
- herbicidal effect grade, I: wild oat (wild oat [3]): 0 (Herbicidal rate of 5% or less (almost no effect))
- herbicidal effect rating, H: barnyard grass (barnyard grass [4]): 0 (Herbicidal rate of 5% or less (almost no effect))
- herbicidal effect rating, G: green foxtail (green foxtail [5]): 0 (Herbicidal rate of 5% or less (almost no effect))
- herbicidal effect on D (Chinese sprangletop), rating 0-5 (Chinese sprangletop): 2 (Herbicidal rate of 20% or more and less than 40%)
- herbicidal effect on E (rice flat sedge), rating 0-5 (rice flat sedge): 1 (Herbicidal rate of 5% or more and less than 20%)
- herbicidal effect grade, L: windgrass (windgrass [6]): 0 (Herbicidal rate of 5% or less (almost no effect))
- herbicidal effect grade, F: southern crabgrass (southern crabgrass [7]): 0 (Herbicidal rate of 5% or less (almost no effect))
- herbicidal effect grade, R: persian speedwell (persian speedwell [8]): 4 (Herbicidal rate of 70% or more and less than 90%)
- herbicidal effect rating, Q: false cleavers (false cleavers [9]): 3 (Herbicidal rate of 40% or more and less than 70%)
- herbicidal effect rating, K: Italian ryegrass (Italian ryegrass [10]): 0 (Herbicidal rate of 5% or less (almost no effect))
- Herbicidal effect on C: oval-leafed pondweed (grade 0-5) (oval-leafed pondweed): 0 (Herbicidal rate of 5% or less (almost no effect))
- herbicidal effect grade, M: velvetleaf (velvetleaf [11]): 3 (Herbicidal rate of 40% or more and less than 70%)
- Herbicidal effect on A: late watergrass (grade 0-5) (late watergrass): 0 (Herbicidal rate of 5% or less (almost no effect))
- herbicidal effect grade, P: chickweed (chickweed [12]): 5 (Herbicidal rate of 90% or more (almost completely withered))
- herbicidal effect grade, G: green foxtail (green foxtail [13]): 0 (Herbicidal rate of 5% or less (almost no effect))
- herbicidal effect rating, R: persian speedwell (persian speedwell [14]): 2 (Herbicidal rate of 20% or more and less than 40%)
- herbicidal effect grade, K: Italian ryegrass (Italian ryegrass [15]): 0 (Herbicidal rate of 5% or less (almost no effect))
- herbicidal effect grade, O: lambsquarters (lambsquarters [16]): 3 (Herbicidal rate of 40% or more and less than 70%)
- herbicidal effect grade, N: redroot pigweed (redroot pigweed [17]): 5 (Herbicidal rate of 90% or more (almost completely withered))
- herbicidal effect rating, F: southern crabgrass (southern crabgrass [18]): 0 (Herbicidal rate of 5% or less (almost no effect))
- herbicidal effect rating, P: chickweed (chickweed [19]): 2 (Herbicidal rate of 20% or more and less than 40%)
- herbicidal effect rating, M: velvetleaf (velvetleaf [20]): 0 (Herbicidal rate of 5% or less (almost no effect))
- herbicidal effect rating, N: redroot pigweed (redroot pigweed [21]): 0 (Herbicidal rate of 5% or less (almost no effect))
- herbicidal effect grade, H: barnyard grass (barnyard grass [22]): 3 (Herbicidal rate of 40% or more and less than 70%)
- herbicidal effect rating, O: lambsquarters (lambsquarters [23]): 0 (Herbicidal rate of 5% or less (almost no effect))
- herbicidal effect rating, J: blackgrass (blackgrass [24]): 0 (Herbicidal rate of 5% or less (almost no effect))
- herbicidal effect grade, J: blackgrass (blackgrass [25]): 0 (Herbicidal rate of 5% or less (almost no effect))
- Herbicidal effect on B: Japanese bulrush (grade 0-5) (Japanese bulrush): 2 (Herbicidal rate of 20% or more and less than 40%)
- herbicidal effect rating, L: windgrass (windgrass [26]): 0 (Herbicidal rate of 5% or less (almost no effect))
- herbicidal effect rating, I: wild oat (wild oat [27]): 0 (Herbicidal rate of 5% or less (almost no effect))
